Earlier results in US9937141B2, “Carcinoma diagnosis and treatment, based on ODC1 genotype” (The Arizona Board of Regents on Behalf of the University of …, priority 2009, dated 2018).

Legend:
[1] = human, in vivo
tumor putrescine = settings: DFMO infusion, without suppressing peripheral platelet counts
prostoglandin E2 (PGE2) = settings: 300 mg/day, one month

In the case of `CC1=C(CC(=O)O)c2cc(F)ccc2/C1=C\c1ccc([S+](C)[O-])cc1` (stereo not shown) [Sulindac, (Z)-5-fluoro-2-methyl-1-((4 (methylsulfin-yl)phenyl)methylene) 1H-indene-3-acetic acid], the “time to peak plasma levels” value (fasting patients) is given as “about 2 hours”, the “drug absorbed after oral administration” value (oral) is given as “about 90%” and the “Skin rash and pruritus, patients affected” value [1] is given as 5%. For the same molecule, the “mild gastrointestinal effects, patients affected” value [1] was roughly 20%.
For `NCCCC(N)(C(=O)O)C(F)F` (racemic) [DFMO, 2-(difluoromethyl)-dl-ornithine], the “decrease in tumor putrescine levels” value (tumor putrescine) is listed as 90%.
In the case of `CC(C)Cc1ccc(C(C)C(=O)O)cc1` (stereo not shown) [ibuprofen], the “PGE2 levels in flat mucosa” value (prostoglandin E2 (PGE2)) is listed as “significant decrease”.
For `CC1=C(CC(=O)O)c2cc(F)ccc2/C1=C\c1ccc(S(C)(=O)=O)cc1` [Sulindac sulfone], the COX-inhibitory activity (COX) is listed as “lacks COX-inhibitory activity”.
